Values joined by “and” are separate entries in the source; they are usually repeats but may differ in a detail not shown here. Identical values can stand only once.
Key:
[1] = system: plasmid DNA pCR 2.1; assay: Electrophoretic mobility shift assay; assay type: binding; details: 100 ng plasmid, 0.1 nmol compound, 2 h at 37 °C, 1% agarose gel
[2] = system: LS-180 (colon cancer); assay: MTT cytotoxicity assay, LS-180; assay type: cell-based; details: Homo sapiens, LS180, 48 h, read-out: IC50 ± SD
[3] = system: ARPE-19 (retinal epithelium), nontumor; assay: MTT cytotoxicity assay, ARPE-19; assay type: cell-based; details: Homo sapiens, ARPE-19, 48 h, read-out: IC50 ± SD
[4] = system: HeLa (cervical cancer); assay: MTT cytotoxicity assay, HeLa; assay type: cell-based; details: Homo sapiens, 48 h, read-out: IC50 ± SD
[5] = system: A-549 (lung cancer); assay: MTT cytotoxicity assay, A-549; assay type: cell-based; details: Homo sapiens, A549, 48 h, read-out: IC50 ± SD
[6] = system: DNA-1 (5′-GTA AGA TGA TTC-3′ and 5′-GAA TCA TCT TAC-3′); assay type: binding; details: pH 7.2

Compound: COc1ccc2cc1Oc1ccc(cc1)C[C@H]1c3cc(c(OC)cc3CCN1C)Oc1c(OC)c(OC)cc3c1[C@H](C2)N(C)CC3 [tetrandrine, S,S-(+)-tetrandrine]
- Effect on electrophoretic mobility of plasmid DNA [1]: reduce the mobility of the plasmid
- IC50 [2]: 6.43 µg/mL and 10.3 µM
- IC50 [3]: 8.45 µg/mL and 13.6 µM
- IC50 [4]: 16.6 µg/mL and 26.7 µM
- IC50 [5]: 12.1 µg/mL and 19.4 µM
- Stern–Volmer constant (KSV) [6]: 7.34 × 10^3
